Reference: patent publication US20230293614A1, “COMPOSITIONS AND METHODS OF TREATING UPS-ASSOCIATED DISEASES” (Board of Supervisors of Louisiana State University and …, priority 2020, published 2023)

Tests used:
[1] = MTT cellular viability assay, MM.1S; format: cell-based; conditions: human, MM.1S cells, read-out: percentage of viable cells
Description: (§1) The effect of PMI-5011 and bioactive compounds on the viability of cells was tested using a standard colorimetric MTT assay. The MTT Cell Proliferation Assay Kit was purchased from VWR, Radnor, Pa. MM.1S and OPM2 cells were treated with 10 μg/mL of PMI-5011 and 1, 10, and 30 μg/mL of DMC-1, DMC-2, KOE and davidigenin and plated at a density of 10^6 cells/mL in a 96-well plate with each well containing 250 μL of the sample. The plated cells were then incubated at 37° C. for 16 h. 10 μg/mL for PMI-5011 and a 16-h treatment period was used in this study based on previous findings by Yu et al.^24 Parallel plates were prepared for positive and negative solvent vehicle control with the same volume of DMSO and ethanol as for the treated cells. On the day of the experiment, the 96-well plates were centrifuged at 1000×g at 4° C. for 5 min in a microplate compatible centrifuge. The media was discarded and 50 μL of serum-free media and 50 μL of the MTT reagent were added into each well. For a background control, 50 μL of the MTT reagent was added into a well containing media only (no cells). The plate was incubated at 37° C. for 3 h in the dark. After incubation, 150 μL of the MTT solvent was added into each well. The plate was wrapped in a foil and placed on an orbital shaker for 15 min. Finally, the absorbance was measured at λex=544 nm and λem=590 nm using a Wallac 1420 VICTOR2 multilabel HTS counter fluorometry (Perkin Elmer (Waltham, Mass.). The percentage viable cells was obtained by Eq. 1.
(§2) % Viable Cells=S-N/C-N×100 (Eq. 1)
(§3) Where, S denotes raw absorbance values from samples, N denotes average absorbance value of the background control and C denotes the highest average absorbance value of positive vehicle control. The obtained percentage cytotoxicity values were then statistically analyzed for their significance. Each data point represents triplicate data points from duplicate experiments. The effect of PMI-5011 and the selected bioactive compounds on C2C12 cell viability has previously been reported.^24

[2] = tested on: deubiquitinating enzymes (DUBs); test: DUB activity (Z-LRGG-AMC cleavage) in lysates of treated OPM2 cells; format: cell-based; conditions: for Vmax / effect on DUB activity vs DMSO control / Km / n (Hill coefficient): 16 h; for effect of increasing concentration on DUB activity (normalized Vmax): 1, 10, 30 μg/mL, regression fit
Description: (§4) OPM2 cells were maintained in RPMI 1640 media supplemented with 12% FBS, 21.8 mM glucose, 8.6 mM HEPES (pH 7.4) and 1.0 mM sodium pyruvate. MM.1S cell line were maintained in RPMI 1640 media supplemented with 10% FBS. The cells were all cultured in T175 flasks (VWR, Radnor, Pa.). All media components were from Corning, Atlanta, Ga. unless otherwise noted. To test the effect of the ethanolic extract and bioactive compounds on DUB activity, cells were exposed to a 16-h pretreatment with 10 μg/mL of PMI-5011 and 1, 10, 30 μg/mL concentrations of DMC-1, DMC-2, KOE, and davidigenin before lysing the cells for experimentation. All compounds were reconstituted in DMSO to obtain stock concentrations, which was further diluted in culture media to obtain the desired experimental concentrations. For vehicle control, a subpopulation of cells was treated with pure DMSO diluted in a similar manner for the same duration. Upon treatment, cell lysates (both OPM2 and MM.1S) were generated by harvesting 1×10^6 cells/mL, followed by washing 2× and pelleting in phosphate buffered saline (PBS; 137 mM NaCl, 10 mM Na2HPO4, […], and 1.75 mM KH2PO4 at pH 7.4). The cell pellet was re-suspended in an approximately equivalent volume of M-PER to the volume of the cell pellet (1000-2000 μL) then vortexed for 10 min at room temperature. Following this, the mixture was centrifuged at 14,000×g for 15 min at 4° C. and the supernatant transferred to a centrifuge tube and stored on ice until use. Total protein concentration was determined using a NanoDrop 2000c (Thermo Scientific, Madison, Wis.).
(§5) The commercial DUB reporter, Z-LRGG-AMC (substrate) (SEQ ID NO: 1) was reconstituted in DMSO to obtain a final stock concentration of 1.44 mM. This stock reporter was diluted as needed in assay buffer (50 mM HEPES, pH 7.4, 150 mM NaCl, 2 mM DTT, and 0.02% Tween-20) supplemented with 4 mg/mL cell lysates (source of DUBs) to reach the desired reporter concentration with a final volume of 100 μL in a 96-well plate. OPM2 and MM.1S cell lysates from different treatments (10 μg/mL of PMI-5011; 1, 10, and 30 μg/mL of DMC-1, DMC-2, KOE, davidigenin and control vehicle DMSO) and C2C12 cell lysates were used to interrogate the effect of the ethanolic extract and selected bioactive compounds on DUB activity. Reporter only and lysates only (noise/background) samples were included in the 96-well plate to confirm that the rates observed were due to DUB-mediated hydrolysis initiated by the cell lysates. The 96-well plate was maintained at a temperature of 30° C. in the dark for the duration of the experiment. The fluorescence signals emitted as a result of DUB-mediated cleavage of AMC (λex=355 nm and λem=460 nm) were quantified using a Wallac 1420 VICTOR2 multilabel HTS counter fluorometry (Perkin Elmer (Waltham, Mass.). Readings were collected every 30 min for 6 h. The normalized signals were obtained by comparing the treatment with noise and background fluorescence values which were then statistically analyzed for their significance. Each data point represents triplicate data points from duplicate experiments. A calibration curve was generated for known concentrations of AMC to correlate the fluorescence signal (AU) to concentration (μM). The approximate concentration of free fluorophore was used to calculate reaction rates (μM/min) for each substrate concentration using linear regression analysis.
(§6) All data visualization, interpretation and curve-fittings were performed using Origin Pro (OriginLab, Northampton, MA) while statistical analyses of experimental data were carried out using SAS 9.4 (SAS Solutions). The analyses of enzyme-substrate reactions in all cell lysates started with scatter plotting the fluorometry signals (p,M) measured for each substrate concentration against time (min). Fluorescence signals measured for each substrate concentration remained stable during the first 30 min, indicating there was a 30-minute lag period before reaction initiation. […]

[3] = tested on: deubiquitinating enzymes (DUBs); test: DUB activity (Z-LRGG-AMC cleavage) in lysates of treated MM.1S cells; format: cell-based; conditions: for Vmax / effect on DUB activity vs DMSO control / Km / n (Hill coefficient): 16 h; for effect of increasing concentration on DUB activity (normalized Vmax): 1, 10, 30 μg/mL, regression fit
Description: as §4, §5, §6

[4] = MTT cellular viability assay, OPM2; format: cell-based; conditions: human, OPM2 cells, read-out: percentage of viable cells
Description: as §1, §2, §3

DUB = test: Experiment 2: DUB reporter Z-LRGG-AMC with control, 5011, IU1 and KOE lysates; format: biochemical; conditions: lysate 4 mg/mL
Description: Peptide used was the commercial DUB reporter [Z-LRGG-AMC (SEQ ID NO: 1)] at multiple concentration [50-150 um]. 640 μL protein at 10 mg/mL for each set was given. Final protein concentration in micro-wells was 4 mg/mL. Peptide was incubated with control, 5011 treated, 25 uM IU1, 50 uM IU1 and KOE in DUB assay buffer. Fluorometric readings were taken at different time points in plate reader. Measured at [Em 460/Ex 355]. Fluorescent signals were converted to μM/min using a calibration curve for the AMC fluorophore. Rates were plotted vs. substrate concentration (Z-LRGG-AMC peptide (SEQ ID NO: 1)) (FIG. 7).

[5] = Table 2, OPM-2, 1 μg/mL, in µM/min
[6] = Table 2, OPM-2, 10 μg/mL, in µM/min
[7] = Table 2, OPM-2, 30 μg/mL, in µM/min

For O=C(CCc1ccc(O)cc1)c1ccc(O)cc1O [DVG, 1-(2,4-dihydroxyphenyl)-3-(4-hydroxyphenyl)propan-1-one], the viability at 16 h, 1 μg/mL [1] was ~105%, the viability at 16 h, 30 μg/mL [1] was ~80% and the “effect on DUB activity (summary)” value ([2]; OPM2) was “enhance”. For the same compound, the Vmax ([2]; OPM2, 1 μg/mL) was 23.32 ± 1.58 µM/min, the “effect on DUB activity vs DMSO control” value ([2]; OPM2, 1 μg/mL) was “significantly enhanced” and the Vmax ([2]; OPM2, 10 μg/mL) was 24.76 ± 1.84 µM/min. For the same compound, the “effect on DUB activity vs DMSO control” value ([2]; OPM2, 10 μg/mL) was “significantly enhanced”, the Vmax ([2]; OPM2, 30 μg/mL) was 315.24 ± 41.65 µM/min and the “effect on DUB activity vs DMSO control” value ([2]; OPM2, 30 μg/mL) was “significantly enhanced”. The “effect of increasing concentration on DUB activity (normalized Vmax)” value ([2]; OPM2) was “exponential increase”, the Km ([2]; Table 2, OPM-2, 1 μg/mL) was 56.4 µM and the “n (Hill coefficient)” value ([2]; Table 2, OPM-2, 1 μg/mL) was 0.82. The Vmax [2, 5] was 23.32, the Km ([2]; Table 2, OPM-2, 10 μg/mL) was 45.5 µM and the “n (Hill coefficient)” value ([2]; Table 2, OPM-2, 10 μg/mL) was 1.78. The Vmax [2, 6] was 24.76, the Km ([2]; Table 2, OPM-2, 30 μg/mL) was 89.4 µM and the “n (Hill coefficient)” value ([2]; Table 2, OPM-2, 30 μg/mL) was 1.34. For the same compound, the Vmax [2, 7] was 315.24, the “effect on DUB activity (summary)” value [3] was “inhibit” and the Vmax ([3]; 1 μg/mL) was 12.72 ± 0.78 µM/min. For the same compound, the “effect on DUB activity vs DMSO control” value ([3]; 1 μg/mL) was “significantly enhanced”, the Vmax ([3]; 10 μg/mL) was 12.23 ± 1.30 µM/min and the “effect on DUB activity vs DMSO control” value ([3]; 10 μg/mL) was “significantly enhanced”. For the same compound, the Vmax ([3]; 30 μg/mL) was 6.48 ± 0.54 µM/min, the “effect on DUB activity vs DMSO control” value ([3]; 30 μg/mL) was “significantly inhibited” and the “effect of increasing concentration on DUB activity (normalized Vmax)” value [3] was “negative linear effect”. The Km ([3]; Table 2, 1 μg/mL) was 30.2 µM, the Vmax ([3]; Table 2, 1 μg/mL) was 0.0127 µM/min and the “n (Hill coefficient)” value ([3]; Table 2, 1 μg/mL) was 2.01. For the same compound, the Km ([3]; Table 2, 10 μg/mL) was 39.2 µM, the Vmax ([3]; Table 2, 10 μg/mL) was 0.0122 µM/min and the “n (Hill coefficient)” value ([3]; Table 2, 10 μg/mL) was 1.92. The Km ([3]; Table 2, 30 μg/mL) was 38.4 µM, the Vmax ([3]; Table 2, 30 μg/mL) was 0.00648 µM/min and the “n (Hill coefficient)” value ([3]; Table 2, 30 μg/mL) was 1.51. It also gave a viability at 16 h, 1 μg/mL [4] of ~90% and a viability at 16 h, 30 μg/mL [4] of ~60%.

Work on COc1ccc(C(=O)CCc2ccc(O)cc2)c(O)c1 [DMC-1, 1-(2-hydroxy-4-methoxyphenyl)-3-(4-hydroxyphenyl)propan-1-one] yielded a viability at 16 h, 1 μg/mL [1] of ~95%, a viability at 16 h, 30 μg/mL [1] of ~55% and a Vmax ([2]; OPM2, 1 μg/mL) of 33.06 ± 5.08 µM/min. For the same compound, the “effect on DUB activity vs DMSO control” value ([2]; OPM2, 1 μg/mL) was “significantly inhibiting”, the Vmax ([2]; OPM2, 10 μg/mL) was 27.93 ± 4.80 µM/min and the “effect on DUB activity vs DMSO control” value ([2]; OPM2, 10 μg/mL) was “significantly inhibiting”. For the same compound, the Vmax ([2]; OPM2, 30 μg/mL) was 233.44 ± 27.31 µM/min, the “effect on DUB activity vs DMSO control” value ([2]; OPM2, 30 μg/mL) was “significantly enhanced” and the “effect of increasing concentration on DUB activity (normalized Vmax)” value ([2]; OPM2) was “exponential increase”. For the same compound, the Km ([2]; Table 2, OPM-2, 1 μg/mL) was 61.4 µM, the “n (Hill coefficient)” value ([2]; Table 2, OPM-2, 1 μg/mL) was 1.29 and the Vmax [2, 5] was 33.06±. The Km ([2]; Table 2, OPM-2, 10 μg/mL) was 46.3 µM, the “n (Hill coefficient)” value ([2]; Table 2, OPM-2, 10 μg/mL) was 1.40 and the Vmax [2, 6] was 27.93. For the same compound, the Km ([2]; Table 2, OPM-2, 30 μg/mL) was 140 µM, the “n (Hill coefficient)” value ([2]; Table 2, OPM-2, 30 μg/mL) was 0.93 and the Vmax [2, 7] was 233.44. The Vmax ([3]; 1 μg/mL) was 7.03 ± 1.10 µM/min, the “effect on DUB activity vs DMSO control” value ([3]; 1 μg/mL) was “significantly inhibiting” and the Vmax ([3]; 10 μg/mL) was 9.19 ± 0.78 µM/min. The “effect on DUB activity vs DMSO control” value ([3]; 10 μg/mL) was “significantly inhibiting”, the Vmax ([3]; 30 μg/mL) was 12.91 ± 1.45 µM/min and the “effect on DUB activity vs DMSO control” value ([3]; 30 μg/mL) was “significantly enhanced”. For the same compound, the “effect of increasing concentration on DUB activity (normalized Vmax)” value [3] was “positive linear effect”, the Km ([3]; Table 2, 1 μg/mL) was 21 µM and the Vmax ([3]; Table 2, 1 μg/mL) was 0.00703 µM/min. For the same compound, the “n (Hill coefficient)” value ([3]; Table 2, 1 μg/mL) was 1.33, the Km ([3]; Table 2, 10 μg/mL) was 26 µM and the Vmax ([3]; Table 2, 10 μg/mL) was 0.00919 µM/min. For the same compound, the “n (Hill coefficient)” value ([3]; Table 2, 10 μg/mL) was 1.64, the Km ([3]; Table 2, 30 μg/mL) was 29.3 µM and the Vmax ([3]; Table 2, 30 μg/mL) was 0.0129 µM/min. The “n (Hill coefficient)” value ([3]; Table 2, 30 μg/mL) was 1.07, the viability at 16 h, 1 μg/mL [4] was ~100% and the viability at 16 h, 30 μg/mL [4] was ~60%.

For Cc1cc(C(=O)CN2CCCC2)c(C)n1-c1ccc(F)cc1 [IU1], the “effect on DUB activity vs control” value (DUB; 25 μM) was “inhibit” and the “effect on DUB activity vs control” value (DUB; 50 μM) was “inhibit”.
